Data as given in ChEMBL document CHEMBL4619760, “Anti-inflammatory Efficacy of Combined Natural Alkaloid Berberine and S1PR Modulator Fingolimod at Low Doses in Ulcerative Colitis Preclinical Models” (J Nat Prod, 2020).
Calls of active or inactive are those of the source. The rule behind the calls is not given here.

Tests used:
Mus musculus [1] = test: Anti-colitis activity against DSS-induced C57BL/6 mouse model of subchronic relapsing colitis assessed as reduction in colon swelling at 0.3 mg/kg, po administered once daily for 14 days starting from day 5 post DSS-challenge; format: functional, organism-based
Mus musculus [2] = test: Anti-colitis activity against DSS-induced C57BL/6 mouse model of subchronic relapsing colitis assessed as reduction in disease activity index at 0.15 mg/kg, po administered once daily for 14 days starting from day 5 post DSS-challenge cotreated with 20 mg/kg berberine measured after day 12 to day 18; format: functional, organism-based
Mus musculus [3] = test: (§1) Anti-colitis activity against DSS-induced C57BL/6 mouse model of chronic relapsing colitis assessed as reduction in DSS-induced multiple erosive lesions in colon at 0.15 mg/kg, po administered once daily for 30 days starting from day 13 post DSS-challenge cotreated with 20 mg/kg berberine by hematoxylin and eosin staining based light microscopic analysis; format: functional, organism-based
Mus musculus [4] = test: Anti-colitis activity against DSS-induced C57BL/6 mouse model of chronic relapsing colitis assessed as reduction in disease activity index at 0.15 mg/kg, po administered once daily for 30 days starting from day 13 post DSS-challenge cotreated with 20 mg/kg berberine and measured on day 43; format: functional, organism-based
[5] = (§2) Toxicity in DSS-induced C57BL/6 mouse model of chronic relapsing colitis assessed as induction of abnormalities in lung at 0.3 mg/kg, po administered once daily for 30 days starting from day 13 post DSS-challenge by hematoxylin and eosin staining based light microscopic analysis; format: organism-based; conditions: in vivo, 720 h
Mus musculus [6] = test: Antiinflammatory activity against DSS-induced C57BL/6 mouse model of subchronic relapsing colitis assessed as reduction in IL17 mRNA level at 0.3 mg/kg, po administered once daily for 14 days starting from day 5 post DSS-challenge by RT-qPCR analysis; format: functional, organism-based
Mus musculus [7] = test: Antiinflammatory activity against DSS-induced C57BL/6 mouse model of subchronic relapsing colitis assessed as reduction in IL17 mRNA level at 0.15 mg/kg, po administered once daily for 14 days starting from day 5 post DSS-challenge cotreated with 20 mg/kg berberine by RT-qPCR analysis; format: functional, organism-based
Mus musculus [8] = test: Anti-colitis activity against DSS-induced C57BL/6 mouse model of chronic relapsing colitis assessed as reduction in stool consistency score at 0.15 mg/kg, po administered once daily for 30 days starting from day 13 post DSS-challenge cotreated with 20 mg/kg berberine measured on day 24; format: functional, organism-based
Mus musculus [9] = test: Anti-colitis activity against DSS-induced C57BL/6 mouse model of chronic relapsing colitis assessed as reduction in disease activity index at 0.3 mg/kg, po administered once daily for 30 days starting from day 13 post DSS-challenge and measured on day 24; format: functional, organism-based
[10] = as §2, with “0.15” for “0.3”, “DSS-challenge cotreated with 20 mg/kg berberine” for “DSS-challenge”; format: organism-based; conditions: in vivo, 720 h
Mus musculus [11] = test: Anti-colitis activity against DSS-induced C57BL/6 mouse model of chronic relapsing colitis assessed as reduction in disease activity index at 0.15 mg/kg, po administered once daily for 30 days starting from day 13 post DSS-challenge cotreated with 20 mg/kg berberine and measured on day 24; format: functional, organism-based
Mus musculus [12] = test: Anti-colitis activity against DSS-induced C57BL/6 mouse model of subchronic relapsing colitis assessed as reduction in spleen swelling at 0.3 mg/kg, po administered once daily for 14 days starting from day 5 post DSS-challenge; format: functional, organism-based
Mus musculus [13] = test: Anti-colitis activity against DSS-induced C57BL/6 mouse model of chronic relapsing colitis assessed as reduction in stool consistency score at 0.3 mg/kg, po administered once daily for 30 days starting from day 13 post DSS-challenge measured on day 24; format: functional, organism-based
Mus musculus [14] = test: Antiinflammatory activity against DSS-induced C57BL/6 mouse model of subchronic relapsing colitis assessed as reduction in IL6 mRNA level at 0.3 mg/kg, po administered once daily for 14 days starting from day 5 post DSS-challenge by RT-qPCR analysis; format: functional, organism-based
Mus musculus [15] = test: as §1, with “inflammatory cell infiltration” for “multiple erosive lesions”, “0.3” for “0.15”, “DSS-challenge” for “DSS-challenge cotreated with 20 mg/kg berberine”; format: functional, organism-based
Mus musculus [16] = test: Anti-colitis activity against DSS-induced C57BL/6 mouse model of chronic relapsing colitis assessed as reduction in disease activity index at 0.3 mg/kg, po administered once daily for 30 days starting from day 13 post DSS-challenge and measured on day 43; format: functional, organism-based
Mus musculus [17] = test: as §1, with “mononuclear cell infiltration” for “multiple erosive lesions”, “spleen” for “colon”; format: functional, organism-based
Mus musculus [18] = test: Anti-colitis activity against DSS-induced C57BL/6 mouse model of chronic relapsing colitis assessed as reduction in DSS-induced inflammatory cell infiltration in colon at 0.15 mg/kg, po administered once daily for 30 days starting from day 13 post DSS-challenge cotreated with 20 mg/kg berberine; format: functional, organism-based
Mus musculus [19] = test: Antiinflammatory activity against DSS-induced C57BL/6 mouse model of subchronic relapsing colitis assessed as reduction in S1PR1 mRNA level at 0.15 mg/kg, po administered once daily for 14 days starting from day 5 post DSS-challenge cotreated with 20 mg/kg berberine by RT-qPCR analysis; format: functional, organism-based
[20] = molecular target: Signal transducer and activator of transcription 3 (Homo sapiens) (UniProt P40763); test: Inhibition of STAT3 activation in human THP1 cells assessed as reduction in LPS-induced phosphorylated STAT3 expression at 0.5 uM cotreated with 0.5 uM berberine incubated for 1 hr followed by LPS challenge and measured after 4 to 6 hrs by Western blot analysis; format: cell-based; conditions: THP-1
Signal transducer and activator of transcription 3 (Homo sapiens), sequence (P40763 whole entry): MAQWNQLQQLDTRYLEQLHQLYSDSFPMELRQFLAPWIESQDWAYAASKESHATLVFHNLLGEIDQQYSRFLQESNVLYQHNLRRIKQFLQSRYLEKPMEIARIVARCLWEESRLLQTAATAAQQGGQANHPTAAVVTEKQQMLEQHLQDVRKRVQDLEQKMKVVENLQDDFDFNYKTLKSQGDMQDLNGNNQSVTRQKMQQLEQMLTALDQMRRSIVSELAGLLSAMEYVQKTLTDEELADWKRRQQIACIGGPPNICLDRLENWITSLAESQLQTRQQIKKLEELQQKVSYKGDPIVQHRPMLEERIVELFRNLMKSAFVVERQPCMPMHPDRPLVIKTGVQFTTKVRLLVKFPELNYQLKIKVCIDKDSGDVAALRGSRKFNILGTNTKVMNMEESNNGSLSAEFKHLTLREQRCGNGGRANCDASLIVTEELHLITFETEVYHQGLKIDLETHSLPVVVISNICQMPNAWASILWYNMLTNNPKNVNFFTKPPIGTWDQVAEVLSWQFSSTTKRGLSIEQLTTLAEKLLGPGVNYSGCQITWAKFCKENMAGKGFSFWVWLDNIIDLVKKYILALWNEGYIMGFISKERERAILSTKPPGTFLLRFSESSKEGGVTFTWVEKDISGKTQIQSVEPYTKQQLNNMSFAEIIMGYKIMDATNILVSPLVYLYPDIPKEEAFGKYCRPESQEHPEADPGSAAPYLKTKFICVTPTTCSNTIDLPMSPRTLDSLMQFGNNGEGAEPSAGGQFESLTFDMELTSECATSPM

[21] = Toxicity in DSS-induced C57BL/6 mouse model of chronic relapsing colitis assessed as induction of abnormalities in brain at 0.3 mg/kg, po administered once daily for 30 days starting from day 13 post DSS-challenge by hematoxylin and eosin staining based light microscopic analysis; format: organism-based; conditions: in vivo, 720 h
Mus musculus [22] = test: Anti-colitis activity against DSS-induced C57BL/6 mouse model of chronic relapsing colitis assessed as reduction in stool consistency score at 0.3 mg/kg, po administered once daily for 30 days starting from day 13 post DSS-challenge measured on day 43; format: functional, organism-based
Mus musculus [23] = test: Anti-colitis activity against DSS-induced C57BL/6 mouse model of subchronic relapsing colitis assessed as reduction in stool bleeding scores at 0.3 mg/kg, po administered once daily for 14 days starting from day 5 post DSS challenge and measured on day 19; format: functional, organism-based
THP-1 [24] = test: Antiinflammatory activity in human THP1 cells assessed as reduction in LPS-induced IL6 mRNA level at 1 uM incubated for 1 hr followed by LPS challenge and measured after 4 to 6 hrs by q-PCR method; format: functional, cell-based
THP-1 [25] = test: Antiinflammatory activity in human THP1 cells assessed as reduction in LPS-induced TNFalpha mRNA level at 1 uM incubated for 1 hr followed by LPS challenge and measured after 4 to 6 hrs by q-PCR method; format: functional, cell-based
Mus musculus [26] = test: Antiinflammatory activity against DSS-induced C57BL/6 mouse model of subchronic relapsing colitis assessed as reduction in TNFalpha mRNA level at 0.3 mg/kg, po administered once daily for 14 days starting from day 5 post DSS-challenge by RT-qPCR analysis; format: functional, organism-based
Mus musculus [27] = test: Anti-colitis activity against DSS-induced C57BL/6 mouse model of subchronic relapsing colitis assessed as reduction in DSS-induced colon shortening at 0.3 mg/kg, po administered once daily for 14 days starting from day 5 post DSS-challenge; format: functional, organism-based

With `CCCCCCCCc1ccc(CCC(N)(CO)CO)cc1.Cl` [FINGOLIMOD HYDROCHLORIDE] the Activity (Mus musculus [1]) was “inactive”, the Activity (Mus musculus [2]) was “Active” and the Activity (Mus musculus [3]) was “Active”. The Activity (Mus musculus [4]) was “Active”, the Activity [5] was “Non-Toxic” and the Activity (Mus musculus [6]) was “Active”. For the same molecule, the Activity (Mus musculus [7]) was “Active”, the Activity (Mus musculus [8]) was “Active” and the Activity (Mus musculus [9]) was “Active”. For the same molecule, the Activity [10] was “Non-Toxic”, the Activity (Mus musculus [11]) was “Active” and the Activity (Mus musculus [12]) was “inactive”. The Activity (Mus musculus [13]) was “Active”, the Activity (Mus musculus [14]) was “Active” and the Activity (Mus musculus [15]) was “Active”. The Activity (Mus musculus [16]) was “Active”, the Activity (Mus musculus [17]) was “Active” and the Activity (Mus musculus [18]) was “Active”. The Activity (Mus musculus [19]) was “Active”, the inhibition [20] was “Active” and the Activity [21] was “Non-Toxic”. For the same molecule, the Activity (Mus musculus [22]) was “Active”, the Activity (Mus musculus [23]) was “Active” and the Activity (THP-1 [24]) was “Active”. The Activity (THP-1 [25]) was “Active”, the Activity (Mus musculus [26]) was “Active” and the Activity (Mus musculus [27]) was “Active”.
